# Reference: patent publication US8088806B2 (Achillion Pharmaceuticals, Inc., priority 2005, dated 2012)
# Tested on: HCV replicon
# Experiment: Replicon based assay of HCV replication inhibition (NPT ELISA)
# Assay type: cell-based, Hepatitis C virus
# Conditions: Hepatitis C virus, replicon based assay of HCV replication inhibition; Table IV; read-out: Activity
# Procedure, shortened: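 Huh-7 cells carrying a bicistronic HCV replicon (neo, EMCV-IRES-driven NS3–NS5B) treated overnight after seeding with usually 6 concentrations, 10 to 0.03 micromolar, for three days at 37° C without G418. Replication read as NPT level by captured ELISA; matched-DMSO wells and interferon alpha as controls.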
row,Compound,EC50 [nM]
1,"Cc1sc(Nc2ccc(OCCCCc3cccs3)c(F)c2)nc1-c1cccnc1 [compound 854, N-(4-(4-(thiophen-2-yl)butoxy)-3-fluorophenyl)-5-methyl-4-(pyridin-3-yl)thiazol-2-amine]",1000 to 10000
2,"Cc1sc(Nc2ccc(OCCCc3ccccc3)c(F)c2)nc1-c1cccnc1 [compound 855, N-(4-(3-phenylpropoxy)-3-fluorophenyl)-5-methyl-4-(pyridin-3-yl)thiazol-2-amine]",> 10000
3,"Cc1sc(Nc2ccc(OCC3CCCCC3)c(C(F)(F)F)c2)nc1-c1cccnc1 [compound 856, N-(4-(cyclohexylmethoxy)-3-(trifluoromethyl)phenyl)-5-methyl-4-(pyridin-3-yl)thiazol-2-amine]",< 1000
4,"CCCCCCCCOc1ccc(Nc2nc(-c3ccc(F)cc3)c(N)s2)cc1C(F)(F)F [compound 857, N^2-(3-(trifluoromethyl)-4-(octyloxy)phenyl)-4-(4-fluorophenyl)thiazole-2,5-diamine]",< 1000
5,"Nc1sc(Nc2ccc(OCc3ccccc3)cc2)nc1-c1ccc(F)cc1 [compound 858, N^2-(4-(benzyloxy)phenyl)-4-(4-fluorophenyl)thiazole-2,5-diamine]",1000 to 10000
6,"CCCCCCCCOc1ccc(Nc2nc(C#N)c(N)s2)cc1C(F)(F)F [compound 859, 2-(3-(trifluoromethyl)-4-(octyloxy)phenylamino)-5-aminothiazole-4-carbonitrile]",< 1000
7,"FC(F)(F)c1cc(Nc2nc(-c3cccnc3)cs2)ccc1OCCCc1ccco1 [compound 860, N-(4-(3-(furan-2-yl)propoxy)-3-(trifluoromethyl)phenyl)-4-(pyridin-3-yl)thiazol-2-amine]",< 1000
8,"Fc1cc(Nc2nc(-c3cccnc3)cs2)ccc1OCCCc1ccco1 [compound 861, N-(4-(3-(furan-2-yl)propoxy)-3-fluorophenyl)-4-(pyridin-3-yl)thiazol-2-amine]",< 1000
9,"CCCCCCCCN(C)c1ccc(Nc2nc(-c3cccnc3)c(C)s2)cc1C(F)(F)F [compound 862, 2-(trifluoromethyl)-N^1-methyl-N^4-(5-methyl-4-(pyridin-3-yl)thiazol-2-yl)-N^1-octylbenzene-1,4-diamine]",< 1000
10,CCCCCCCN(C)Cc1ccc(Nc2nc(-c3cccnc3)c(C)s2)cc1C(F)(F)F [compound 863],1000 to 10000
11,"FC(F)(F)c1cc(Nc2nc(-c3cccnc3)cs2)ccc1OCCSc1ccccc1 [compound 864, N-(4-(2-(phenylthio)ethoxy)-3-(trifluoromethyl)phenyl)-4-(pyridin-3-yl)thiazol-2-amine]",< 1000
12,"CCCCCCCCOc1ccc(Nc2nc(-c3cnc(NC(C)=O)[nH]3)cs2)cc1C(F)(F)F [compound 865, N-(5-(2-(3-(trifluoromethyl)-4-(octyloxy)phenylamino)thiazol-4-yl)-1H-imidazol-2-yl)acetamide]",< 1000
13,"COc1ncc(-c2csc(Nc3ccc4ccn(Cc5ccc(F)cc5)c4c3)n2)cn1 [compound 866, 1-(4-fluorobenzyl)-N-(4-(2-methoxypyrimidin-5-yl)thiazol-2-yl)-1H-indol-6-amine]",< 1000
14,"Fc1ccc(Cn2ccc3ccc(Nc4nc(-c5cccnc5)cs4)cc32)cc1 [compound 867, 1-(4-fluorobenzyl)-N-(4-(pyridin-3-yl)thiazol-2-yl)-1H-indol-6-amine]",< 1000
15,"Fc1ccc(Cn2ccc3ccc(Nc4nc(-c5ccc(F)cc5)cs4)cc32)cc1 [compound 868, 1-(4-fluorobenzyl)-N-(4-(4-fluorophenyl)thiazol-2-yl)-1H-indol-6-amine]",< 1000
16,"CCCCCCCCNc1ccc(-c2nc(-c3csc(Nc4cccnc4)n3)cs2)cc1C(F)(F)F [compound 869, N-(4-(2-(3-(trifluoromethyl)-4-(octylamino)phenyl)thiazol-4-yl)thiazol-2-yl)pyridin-3-amine]",< 1000
17,Fc1ccc(Cn2ccc3cc(Nc4nc(-c5cccnc5)cs4)ccc32)cc1 [compound 870],< 1000
18,"Fc1ccc(Cn2ccc3cc(Nc4nc(-c5ccc(F)cc5)cs4)ccc32)cc1 [compound 871, 1-(4-fluorobenzyl)-N-(4-(4-fluorophenyl)thiazol-2-yl)-1H-indol-5-amine]",> 10000
19,"CCC(C)c1ccc(Nc2nc(-c3cccnc3)cs2)cc1 (centres unmarked) [compound 872, N-(4-sec-butylphenyl)-4-(pyridin-3-yl)thiazol-2-amine]",1000 to 10000
20,"NC(=O)c1ccc(Nc2nc(-c3cccnc3)cs2)cc1 [compound 873, 4-(4-(pyridin-3-yl)thiazol-2-ylamino)benzamide]",> 10000
21,"FC(F)(F)c1cc(Nc2nc(-c3cccnc3)cs2)cc(C(F)(F)F)c1 [compound 874, N-(3,5-bis(trifluoromethyl)phenyl)-4-(pyridin-3-yl)thiazol-2-amine]",1000 to 10000
22,"Fc1ccc(Nc2nc(-c3cccnc3)cs2)cc1C(F)(F)F [compound 875, N-(4-fluoro-3-(trifluoromethyl)phenyl)-4-(pyridin-3-yl)thiazol-2-amine]",1000 to 10000
23,"NC(=O)c1cccc(Nc2nc(-c3cccnc3)cs2)c1 [compound 876, 3-(4-(pyridin-3-yl)thiazol-2-ylamino)benzamide]",> 10000
24,"Cc1cc(OC(F)(F)F)ccc1Nc1nc(-c2cccnc2)cs1 [compound 877, N-(2-methyl-4-(trifluoromethoxy)phenyl)-4-(pyridin-3-yl)thiazol-2-amine]",> 10000

row,Compound,EC50 [nM]
1,"CC(=O)Nc1ccc(Nc2nc(-c3cccnc3)cs2)cc1 [compound 878, N-(4-(4-(pyridin-3-yl)thiazol-2-ylamino)phenyl)acetamide]",> 10000
2,"Cc1ccc(Nc2nc(-c3cccnc3)cs2)cc1C(F)(F)F [compound 879, N-(3-(trifluoromethyl)-4-methylphenyl)-4-(pyridin-3-yl)thiazol-2-amine]",< 1000
3,"N#Cc1ccc(Nc2nc(-c3cccnc3)cs2)cc1 [compound 880, 4-(4-(pyridin-3-yl)thiazol-2-ylamino)benzonitrile]",1000 to 10000
4,"FC(F)(F)c1cc(Nc2nc(-c3cccnc3)cs2)ccc1Cl [compound 881, N-(4-chloro-3-(trifluoromethyl)phenyl)-4-(pyridin-3-yl)thiazol-2-amine]",< 1000
5,"N#Cc1ccc(Nc2nc(-c3cccnc3)cs2)cc1C(F)(F)F [compound 882, 4-(4-(pyridin-3-yl)thiazol-2-ylamino)-2-(trifluoromethyl)benzonitrile]",> 10000
6,"Cc1cc(C)c(Nc2nc(-c3cccnc3)cs2)c(C)c1 [compound 883, N-mesityl-4-(pyridin-3-yl)thiazol-2-amine]",> 10000
7,"Cc1ccc(Nc2nc(-c3cccnc3)cs2)cc1 [compound 884, 4-(pyridin-3-yl)-N-p-tolylthiazol-2-amine]",> 10000
8,"FC(F)(F)Oc1ccc(Nc2nc(-c3cccnc3)cs2)cc1 [compound 885, 4-(pyridin-3-yl)-N-(4-(trifluoromethoxy)phenyl)thiazol-2-amine]",1000 to 10000
9,"COc1ccc(Nc2nc(-c3cccnc3)cs2)cc1 [compound 886, N-(4-methoxyphenyl)-4-(pyridin-3-yl)thiazol-2-amine]",> 10000
10,"CC(C)c1ccc(Nc2nc(-c3cccnc3)cs2)cc1 [compound 887, N-(4-isopropylphenyl)-4-(pyridin-3-yl)thiazol-2-amine]",1000 to 10000
11,"Fc1ccc(C(F)(F)F)cc1Nc1nc(-c2cccnc2)cs1 [compound 888, N-(2-fluoro-5-(trifluoromethyl)phenyl)-4-(pyridin-3-yl)thiazol-2-amine]",1000 to 10000
12,"Fc1ccc(Nc2nc(-c3cccnc3)cs2)c(F)c1F [compound 889, N-(2,3,4-trifluorophenyl)-4-(pyridin-3-yl)thiazol-2-amine]",> 10000
13,"Fc1c(Nc2nc(-c3cccnc3)cs2)cccc1C(F)(F)F [compound 890, N-(2-fluoro-3-(trifluoromethyl)phenyl)-4-(pyridin-3-yl)thiazol-2-amine]",1000 to 10000
14,"FC(F)(F)c1ccc(Nc2nc(-c3cccnc3)cs2)cc1 [compound 891, N-(4-(trifluoromethyl)phenyl)-4-(pyridin-3-yl)thiazol-2-amine]",1000 to 10000
15,"CC(C)(C)c1ccc(Nc2nc(-c3cccnc3)cs2)cc1 [compound 892, N-(4-tert-butylphenyl)-4-(pyridin-3-yl)thiazol-2-amine]",1000 to 10000
16,"CC(C)(C)c1cccc(Nc2nc(-c3cccnc3)cs2)c1 [compound 893, N-(3-tert-butylphenyl)-4-(pyridin-3-yl)thiazol-2-amine]",> 10000
17,"CC(C)(C)c1cc(Nc2nc(-c3cccnc3)cs2)cc(C(C)(C)C)c1 [compound 894, N-(3,5-di-tert-butylphenyl)-4-(pyridin-3-yl)thiazol-2-amine]",< 1000
18,"CC(C)(C)OC(=O)Nc1ccc(Nc2nc(-c3cccnc3)cs2)cc1 [compound 895, tert-butyl 4-(4-(pyridin-3-yl)thiazol-2-ylamino)phenylcarbamate]",> 10000
19,"Clc1ccc(Oc2ccc(Nc3nc(-c4cccnc4)cs3)cc2)cc1 [compound 896, N-(4-(4-chlorophenoxy)phenyl)-4-(pyridin-3-yl)thiazol-2-amine]",< 1000
20,"Cc1ccc(Oc2ccc(Nc3nc(-c4cccnc4)cs3)cc2)cc1 [compound 897, N-(4-(p-tolyloxy)phenyl)-4-(pyridin-3-yl)thiazol-2-amine]",< 1000
21,"Cc1c(C)c(C)c(C(=O)CCc2cccc(Nc3nc(-c4cccnc4)cs3)c2)c(C)c1C [compound 898, 3-(3-(4-(pyridin-3-yl)thiazol-2-ylamino)phenyl)-1-(2,3,4,5,6-pentamethylphenyl)propan-1-one]",< 1000
22,"Cc1c(Nc2nc(-c3cccnc3)cs2)cccc1C(F)(F)F [compound 899, N-(3-(trifluoromethyl)-2-methylphenyl)-4-(pyridin-3-yl)thiazol-2-amine]",1000 to 10000
23,"CCCCc1ccc(Nc2nc(-c3cccnc3)cs2)c(C)c1 [compound 900, N-(4-butyl-2-methylphenyl)-4-(pyridin-3-yl)thiazol-2-amine]",< 1000
